Test results from publication PMC7070898 (Clinical and Translational Science, 2019).

Experiments:
[1] = Plasma pharmacokinetics, noncompartmental, SAD/MAD trial; type: in vivo, human; settings: for Vd/F / half-life: human, in vivo; for Vd/F: Vz/F, N 9, geometric mean (CV% GM)
[2] = Holter ECG, concentration-QTcF, by-time point and categorical analysis; type: in vivo, human; settings: for mean ΔΔQTcF, by‐time point analysis: 100 mg dose group (n = 6); for Predicted mean ΔΔQTcF: linear mixed model; for Cmax: human, in vivo, Geometric mean Cmax
[3] = test system: experimental autoimmune encephalomyelitis; settings: B cell‐dependent and T cell‐dependent EAE mouse models ref 9, 10; cited from earlier work
[4] = test system: B cell and basophil activation; settings: human cellular assays ref 8; cited from earlier work

C=CC(=O)N1CCC(CNc2ncnc(N)c2-c2ccc(Oc3ccccc3)cc2)CC1 [evobrutinib]
Vd/F ([1]; 25 mg, multiple-dose study day 1, 25 mg): 498 L | Vd/F ([1]; 75 mg, multiple-dose study day 1, 75 mg): 620 L | Vd/F ([1]; 200 mg, multiple-dose study day 1, 200 mg): 647 L | half-life ([1]; 500 mg, geometric mean terminal half‐life (t1/2), single doses 350 and 500 mg): 6.6 to 6.8 h | half-life ([1]; geometric mean terminal half‐life (t1/2), single doses 25–200 mg): 1.8 to 2.6 h | half-life ([1]; half‐life (relevant t1/2), overall summary, all doses): ~2 h | dose proportionality of AUC0–24h and Cmax ([1]; multiple dosing of 25–200 mg, power model): Dose proportionality of AUC0–24h and Cmax was demonstrated | time dependency of PK ([1]; part 2, day 14 vs day 1): no time dependency | Apparent clearance across doses ([1]; single dosing 25–500 mg, part 1): 2,553–3,995 mL/minute | Geometric mean Cmax ([2]; 25 mg dose group, day 1, parts 1 and 2 pooled): 86.48 ng/mL | treatment‐emergent T wave morphological abnormalities ([2]; 50 mg and 100 mg dose groups, day 1, 6‐hour and 8‐hour postdose): reported in two evobrutinib‐treated subjects | mean ΔΔQTcF, by‐time point analysis ([2]; 6‐hour postdose): 7.1 ms | mean ΔΔQTcF, by‐time point analysis ([2]; 8‐hour postdose): 5.6 ms | mean ΔΔQTcF range ([2]; 100 mg dose group, three time points): 5.6 to 7.2 ms | Geometric mean Cmax ([2]; 500 mg dose group, day 1): 1,512.3 ng/mL | subjects with change from baseline in QTcF between 30 ms and 60 ms ([2]; 2 of 81 subjects, both in the 200 mg dose group): 2.5% | mean ΔΔQTcF over the range of doses ([2]; all time points, except the 100 mg dose group): < 5 ms | absolute QTcF value ([2]; any dose group, any time point): ≤ 450 ms | Predicted mean ΔΔQTcF ([2]; at geometric mean Cmax of 75 mg dose group): -0.82 ms | Predicted mean ΔΔQTcF ([2]; at geometric mean Cmax of 200 mg dose group): -0.94 ms | Predicted mean ΔΔQTcF ([2]; at geometric mean Cmax of 350 mg dose group): -0.98 ms | Cmax ([2]; 50 mg, 50 mg dose group, day 1): 234 ng/mL | Cmax ([2]; 75 mg, 75 mg dose group, day 1): 254 ng/mL | Cmax ([2]; 100 mg, 100 mg dose group, day 1): 309 ng/mL | Cmax ([2]; 350 mg, 350 mg dose group, day 1): 846 ng/mL | central nervous system inflammation and disease severity [3]: limited central nervous system inflammation and disease severity | inhibition of B cell and basophil activation [4]: potently inhibits B cell and basophil activation
